Consider 1 compound from patent US11304964B2, “Bolaamphiphilic compounds, compositions and uses thereof” (priority 2012, dated 2022).

Molecules are shown by their SMILES.

Series [1] in a line: Tenofovir concentration in brain after i.v. tenofovir-loaded vesicles (HPLC-UV of brain homogenate). The class given is in vivo, mice. The text has this: Protein precipitation was accomplished by adding trichloroacetic acid (TCA) at a final concentration of 3.75%, providing a clear supernatant by centrifugation. This supernatant was neutralized by 1% sodium hydroxide solution and the neutralized extract was examined by HPLC with a UV detector, using an isocratic method with 10% aceto-nitrile and 90% buffer of triethyl amine in water adjusted to pH 5.4 with concentrated phosphoric acid. When applied to a solution of tenofovir in buffer without the brain extract, the retention time was 17.3 min (FIG. 8 Panel A). […] The broad peak at 22.5 min overlapped the peak of the tenofovir at 17 min (compare FIG. 8 Panel B to FIG. 8 Panel A) and would interfere with the determination of tenofovir concentration in the extract. To narrow the peak of the endogenous compound with the Rt of 22.5 min, a solid phase extraction (SPE) method was employed, using BOND ELUT-C18 column. After the treatment with SPE some peaks disappeared and the others became narrower.
Different concentrations of tenofovir were then spiked into a supernatant obtained after deproteinization of brain homogenate with TCA and centrifugation. The supernatant with the tenofovir was loaded into the SPE cartridge, which was conditioned by 3 ml methanol and 3 ml of 150 mM ammonium acetate (pH=5.0). After washing with 900 μl of 100 mM ammonium acetate (pH=7.0), in order to obtain less interference at the retention time of each component, the column was eluted by 500 μl of methanol to collect the tenofovir. The solvent was removed under nitrogen at 60° C. The extracted sample was dissolved into 120 μl of water and methanol solution (90:10, v/v) and injected into the HPLC.
In view of the conditions for the determination of tenofovir in brain homogenates established herein, mice were injected with 7.5 mg/kg of tenofovir encapsulated in vesicles prepared as for Table 5 above that contained the optimal GLH-55b and SA and brain homogenates were prepared from the brains of these mice for the determination of tenofovir concentrations. […] This concentration value is significant and should have a therapeutic affect against HIV.
A subsequent in vivo experiment was carried out as above but with testing over different periods of time from of 15 min, 30 min, 60 min and 120 min after IV injection the amount of tenofovir was in micro gr/grm brain 6.2, 2.2, 1.0 and 0.5 respectively. While the free tenofovir injected had levels of 0 less than 0.2 micrograms/gr brain. Thus indicating the efficacy of the vesicles to delivery tenofovir to the brain.

For series [2] the following is noted: CNS penetration effectiveness index; cited from earlier work.

For the compound `C[C@H](Cn1cnc2c(N)ncnc21)OCP(=O)(O)O` [tenofovir, ({[(2R)-1-(6-amino-9H-purin-9-yl)propan-2-yl]oxy}methyl)phosphonic acid], the “concentration of tenofovir in the brain” value in series [1] (mice i.v., 7.5 mg/kg tenofovir encapsulated in vesicles with GLH-55b and SA, estimated from calibration curve) is on record as 22.7 μg/gr brain. Besides, the “level of tenofovir in brain” value in series [1] (mice, free tenofovir injected IV) is recorded as “less than 0.2 micrograms/gr brain”. In addition, the concentration at 15 min in series [1] (mouse, brain, 7.5 mg/kg, mice, encapsulated tenofovir in vesicles, 15 min after IV injection, read-out: amount of tenofovir in brain) was 6200 ng/g. The concentration at 30 min in series [1] (mouse, brain, 7.5 mg/kg, mice, encapsulated tenofovir in vesicles, 30 min after IV injection, read-out: amount of tenofovir in brain) was found to be 2200 ng/g. Also, in series [1] (mouse, brain, 7.5 mg/kg, mice, encapsulated tenofovir in vesicles, 60 min after IV injection, read-out: amount of tenofovir in brain), the concentration at 60 min turned out to be 1000 ng/g. Also, the concentration at 120 min in series [1] (mouse, brain, 7.5 mg/kg, mice, encapsulated tenofovir in vesicles, 120 min after IV injection, read-out: amount of tenofovir in brain) is 500 ng/g. Also, the CPE rating in series [2] is 1.
